pIC50: −log10 of the molar value.
Test system: 843126-344-R-J1-PDC complex spheroid viability
Test: Anticancer human tumor 843126-344-R-J1-PDC patient-derived melanoma cell line growth inhibition [POLQ]
Conditions: for pIC50: curve of first compound; for viability, T/C: stronger effect = lower value
How it was run: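 Patient-derived tumour cells were co-cultured with HUVEC and mesenchymal stem cells as multicellular spheroids at 37 °C. They were treated with POLQ inhibitors (novobiocin, ART-558, RP6685) alone or combined with other agents. Top concentrations were at or near clinical Cmax (otherwise 10 microM; SN-38 at 1 microM), decreasing in half-log steps.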

[1] = second compound 0.0316 µM, first compound 0.0316 µM
[2] = second compound 0.0316 µM, first compound 0.1 µM
[3] = second compound 0.0316 µM, first compound 0.316 µM
[4] = second compound 0.0316 µM, first compound 1 µM
[5] = second compound 0.0316 µM, first compound 3.16 µM
[6] = second compound 0.0316 µM, first compound 10 µM
[7] = second compound 0.1 µM, first compound 0.0316 µM
[8] = second compound 0.1 µM, first compound 0.1 µM
[9] = second compound 0.1 µM, first compound 0.316 µM
[10] = second compound 0.1 µM, first compound 1 µM
[11] = second compound 0.1 µM, first compound 3.16 µM
[12] = second compound 0.1 µM, first compound 10 µM
[13] = second compound 0.316 µM, first compound 0.0316 µM
[14] = second compound 0.316 µM, first compound 0.1 µM
[15] = second compound 0.316 µM, first compound 0.316 µM
[16] = second compound 0.316 µM, first compound 1 µM
[17] = second compound 0.316 µM, first compound 3.16 µM
[18] = second compound 0.316 µM, first compound 10 µM
[19] = second compound 1 µM, first compound 0.0316 µM
[20] = second compound 1 µM, first compound 0.1 µM
[21] = second compound 1 µM, first compound 0.316 µM
[22] = second compound 1 µM, first compound 1 µM
[23] = second compound 1 µM, first compound 3.16 µM
[24] = second compound 1 µM, first compound 10 µM
[25] = second compound 3.16 µM, first compound 0.0316 µM
[26] = second compound 3.16 µM, first compound 0.1 µM
[27] = second compound 3.16 µM, first compound 0.316 µM
[28] = second compound 3.16 µM, first compound 1 µM
[29] = second compound 3.16 µM, first compound 3.16 µM
[30] = second compound 3.16 µM, first compound 10 µM
[31] = second compound 10 µM, first compound 0.0316 µM
[32] = second compound 10 µM, first compound 0.1 µM
[33] = second compound 10 µM, first compound 0.316 µM
[34] = second compound 10 µM, first compound 1 µM
[35] = second compound 10 µM, first compound 3.16 µM
[36] = second compound 10 µM, first compound 10 µM
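For viability, T/C in this document: spheroids exposed to drugs for seven days before readout.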

Q: How did the pIC50 (second compound 0.0316 µM) turn out when `COc1cc2cc(C(=O)CCC(=O)O)sc2cc1OC` + Cc1cccc(N(C)C(=O)C2C(O)CCN2c2nc(C)cc(C(F)(F)F)c2C#N)c1 was run?
A: < 5.00

Q: What about the pIC50 (second compound 0.1 µM) of the same molecule?
A: < 5.00

Q: What about the pIC50 (second compound 0.316 µM) of the same molecule?
A: < 5.00

Q: And the pIC50 (second compound 1 µM)?
A: < 5.00

Q: What about the pIC50 (second compound 3.16 µM) of the same molecule?
A: < 5.00

Q: And the pIC50 (second compound 10 µM)?
A: < 5.00

Q: What about the viability, T/C [1] of the same molecule?
A: 95.8%

Q: And the viability, T/C [2]?
A: 83.5%

Q: What about the viability, T/C [3] of the same molecule?
A: 95.1%

Q: What about the viability, T/C [4] of the same molecule?
A: 98.8%

Q: And the viability, T/C [5]?
A: 96.4%

Q: What about the viability, T/C [6] of the same molecule?
A: 92.4%

Q: What about the viability, T/C [7] of the same molecule?
A: 91.1%

Q: And the viability, T/C [8]?
A: 91.4%

Q: And the viability, T/C [9]?
A: 84.9%

Q: What about the viability, T/C [10] of the same molecule?
A: 83.7%

Q: What about the viability, T/C [11] of the same molecule?
A: 94.4%

Q: What about the viability, T/C [12] of the same molecule?
A: 85.2%

Q: What about the viability, T/C [13] of the same molecule?
A: 97.2%

Q: And the viability, T/C [14]?
A: 92.4%

Q: What about the viability, T/C [15] of the same molecule?
A: 90.1%

Q: What about the viability, T/C [16] of the same molecule?
A: 96.6%

Q: What about the viability, T/C [17] of the same molecule?
A: 88.8%

Q: What about the viability, T/C [18] of the same molecule?
A: 89%

Q: What about the viability, T/C [19] of the same molecule?
A: 81.7%

Q: And the viability, T/C [20]?
A: 84.2%

Q: And the viability, T/C [21]?
A: 88.1%

Q: What about the viability, T/C [22] of the same molecule?
A: 93.5%

Q: What about the viability, T/C [23] of the same molecule?
A: 91.8%

Q: What about the viability, T/C [24] of the same molecule?
A: 86.4%

Q: And the viability, T/C [25]?
A: 89.9%

Q: What about the viability, T/C [26] of the same molecule?
A: 83%

Q: What about the viability, T/C [27] of the same molecule?
A: 98.5%

Q: And the viability, T/C [28]?
A: 98.4%

Q: And the viability, T/C [29]?
A: 96.3%

Q: And the viability, T/C [30]?
A: 82.3%

Q: And the viability, T/C [31]?
A: 95.7%

Q: What about the viability, T/C [32] of the same molecule?
A: 90.6%

Q: And the viability, T/C [33]?
A: 92.1%

Q: And the viability, T/C [34]?
A: 89.7%

Q: What about the viability, T/C [35] of the same molecule?
A: 90.9%

Q: What about the viability, T/C [36] of the same molecule?
A: 86.1%

Q: What does the source list for `O=C(Nc1ccc(O)c(NS(=O)(=O)c2ccc(F)cc2)c1)c1ccc(-c2ccccc2)cc1` + Cc1cccc(N(C)C(=O)C2C(O)CCN2c2nc(C)cc(C(F)(F)F)c2C#N)c1?
A: pIC50 (second compound 0.0316 µM): < 5.00; pIC50 (second compound 0.1 µM): < 5.00; pIC50 (second compound 0.316 µM): < 5.00; pIC50 (second compound 1 µM): < 5.00; pIC50 (second compound 3.16 µM): < 5.00; pIC50 (second compound 10 µM): < 5.00; viability, T/C [1]: 90%; viability, T/C [2]: 95.2%; viability, T/C [3]: 93.6%; viability, T/C [4]: 90.3%; viability, T/C [5]: 99.6%; viability, T/C [6]: 70.8%; viability, T/C [7]: 98.2%; viability, T/C [8]: 94.5%; viability, T/C [9]: 84.1%; viability, T/C [10]: 83.6%; viability, T/C [11]: 96.5%; viability, T/C [12]: 75%; viability, T/C [13]: 86.4%; viability, T/C [14]: 88.2%; viability, T/C [15]: 103%; viability, T/C [16]: 99.2%; viability, T/C [17]: 84.8%; viability, T/C [18]: 70.2%; viability, T/C [19]: 95.7%; viability, T/C [20]: 88.1%; viability, T/C [21]: 96.6%; viability, T/C [22]: 99.9%; viability, T/C [23]: 92.4%; viability, T/C [24]: 72.6%; viability, T/C [25]: 97.5%; viability, T/C [26]: 97.7%; viability, T/C [27]: 89%; viability, T/C [28]: 90.6%; viability, T/C [29]: 84.6%; viability, T/C [30]: 69%; viability, T/C [31]: 92.2%; viability, T/C [32]: 87.4%; viability, T/C [33]: 89.2%; viability, T/C [34]: 85.5%; viability, T/C [35]: 93.5%; viability, T/C [36]: 62.5%

Q: Which results are given for `COc1cccc2c1C(=O)c1c(O)c3c(c(O)c1C2=O)CC(O)(C(=O)CO)CC3OC1CC(N)C(O)C(C)O1` (stereo unspecified) + Nc1ccc(C#CCN(C(=O)Cc2ncc(C(F)(F)F)cc2C(F)(F)F)c2ccc(F)cc2)nn1?
A: pIC50 (second compound 0.0316 µM): 6.41; pIC50 (second compound 0.1 µM): 6.39; pIC50 (second compound 0.316 µM): 6.53; pIC50 (second compound 1 µM): 6.46; pIC50 (second compound 3.16 µM): 6.54; pIC50 (second compound 10 µM): 6.54; viability, T/C [1]: 84.7%; viability, T/C [2]: 84.8%; viability, T/C [3]: 57.3%; viability, T/C [4]: 16.1%; viability, T/C [5]: 3.95%; viability, T/C [6]: 2.82%; viability, T/C [7]: 94.7%; viability, T/C [8]: 84.4%; viability, T/C [9]: 61.3%; viability, T/C [10]: 15.7%; viability, T/C [11]: 3.48%; viability, T/C [12]: 2.63%; viability, T/C [13]: 77.9%; viability, T/C [14]: 94.6%; viability, T/C [15]: 47.5%; viability, T/C [16]: 12.2%; viability, T/C [17]: 2.99%; viability, T/C [18]: 2.71%; viability, T/C [19]: 78.5%; viability, T/C [20]: 79%; viability, T/C [21]: 52.6%; viability, T/C [22]: 14.2%; viability, T/C [23]: 3.21%; viability, T/C [24]: 2.34%; viability, T/C [25]: 82.4%; viability, T/C [26]: 76.3%; viability, T/C [27]: 47.8%; viability, T/C [28]: 13.9%; viability, T/C [29]: 3.21%; viability, T/C [30]: 2.76%; viability, T/C [31]: 80.6%; viability, T/C [32]: 73.4%; viability, T/C [33]: 48.5%; viability, T/C [34]: 10.4%; viability, T/C [35]: 2.78%; viability, T/C [36]: 2.29%

Reference: PubChem BioAssay AID1963837 (Molecular Pharmacology Branch, DTP, NCI, 2024)
